In patent publication US9617244B2, “Antibacterial quinoline derivatives” (JANSSEN PHARMACEUTICA NV, priority 2012, dated 2017):
Values after ≈ are worked out from the molar mass of the structure shown.

System: Mycobacterium smegmatis (ATCC607)
Experiment: In-vitro anti-bacterial activity against strain M. Smegmatis ATCC607
Type: cell-based
Details: 90% inhibitory concentration for bacterial growth, 48 hours, Alamar Blue fluorescence
Procedure, shortened: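 IC90 (μg/ml) derived from Alamar Blue fluorescence (530/590 nm) after 48 h growth at 37 °C under 5% CO2. About 250 CFU per well in Mueller-Hinton broth faced five-fold serial compound dilutions in BSA-containing wells.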

Compound | IC90 MSM 607
COc1nc2ccc(Cl)cc2cc1C(c1ccc(Cl)cc1)C1(O)CCNCC1c1ccccc1 (centres unmarked) [Compound 411] | 6.50 µg/mL (≈ 13.2 µM)
COc1nc2ccc(Cl)cc2cc1C(c1ccc(Cl)cc1)C1(O)CCNCC1c1ccccc1 (centres unmarked) [Compound 412] | 2.02 µg/mL (≈ 4.09 µM)
COc1nc2ccccc2cc1C(c1ccccc1)C1(O)CCNC(c2ccccc2)C1 (centres unmarked) [Compound 414] | 18.39 µg/mL (≈ 43.3 µM)
COc1nc2ccccc2cc1C(c1ccccc1)C1(O)CCNC(c2ccccc2)C1 (centres unmarked) [Compound 415] | >15.47 µg/mL
COc1nc2ccccc2cc1C(c1ccccc1)C1(O)CCNC(c2ccc(F)cc2C)C1 (centres unmarked) [Compound 416] | 9.25 µg/mL (≈ 20.3 µM)
COc1nc2ccc(F)cc2cc1C(c1ccc(S(C)(=O)=O)cc1)C1(O)CCNC(c2ccc(F)cc2C)C1 (centres unmarked) [Compound 418] | 17.67 µg/mL (≈ 32 µM)
COc1nc2ccc(Cl)cc2cc1C(c1ccc(Cl)cc1)C1(O)CCNCC1C (centres unmarked) [Compound 420] | 5.43 µg/mL (≈ 12.6 µM)
COc1nc2ccc(Cl)cc2cc1C(c1ccc(Cl)cc1)C1(O)CCNCC1C (centres unmarked) [Compound 421] | 5.43 µg/mL (≈ 12.6 µM)
COc1nc2ccc(Cl)cc2cc1C(c1ccc(Cl)cc1)C1(O)CCNCC1C (centres unmarked) [Compound 422] | 8.61 µg/mL (≈ 20 µM)
COc1nc2ccc(Br)cc2cc1C(c1cccnc1)C1(O)CCNC(Cc2ccccc2)C1 (centres unmarked) [Compound 428] | 10.66 µg/mL (≈ 20.6 µM)
COc1nc2ccc(Cl)cc2cc1C(c1ccc(Cl)cc1)C1(O)CCNC(c2ccc3ccccc3c2)C1 (centres unmarked) [Compound 430] | 3.39 µg/mL (≈ 6.24 µM)
COc1nc2ccc(Cl)cc2cc1C(c1ccc(Cl)cc1)C1(O)CCNC(c2ccc3ccccc3c2)C1 (centres unmarked) [Compound 431] | 7.66 µg/mL (≈ 14.1 µM)
COc1nc2ccc(Cl)cc2cc1C(c1ccc(Cl)cc1)C1(O)CCNC(c2ccc3ccccc3c2)C1 (centres unmarked) [Compound 432] | 5.24 µg/mL (≈ 9.64 µM)
COc1nc2ccc(Cl)cc2cc1C(c1ccc(Cl)cc1)C1(O)CCNC(c2ccc3ccccc3c2)C1 (centres unmarked) [Compound 442] | 3.60 µg/mL (≈ 6.62 µM)
O=c1[nH]c2ccc(Cl)cc2cc1C(c1ccc(Cl)cc1)C1(O)CCNCC1F (centres unmarked) [Compound 458] | 11.50 µg/mL (≈ 27.3 µM)
COc1nc2ccc(Cl)cc2cc1C(c1ccc(Cl)cc1)C1(O)CCNC(Cc2cccnc2)C1 (centres unmarked) [Compound 468] | 3.21 µg/mL (≈ 6.31 µM)
COc1nc2ccc(Cl)cc2cc1C(c1ccc(Cl)cc1)C1(O)CCNC(CNc2cccnc2)C1 (centres unmarked) [Compound 470] | 3.08 µg/mL (≈ 5.88 µM)

Same assay, conditions: Mycolicibacterium smegmatis, ATCC607, 48 h, 90% inhibitory concentration for bacterial growth, Alamar Blue fluorescence, read-out: IC90 MSM 607

Compound | IC90
COc1nc2ccc(SC(C)C)cc2cc1C(c1ccc(Cl)cc1)C1(O)CCNC(Cc2ccccc2)C1 (centres unmarked) [Compound 382] | 2.18 µg/mL (≈ 3.98 µM)
C=CCC1CNCCC1(O)C(c1cccc(Cl)c1)c1cc2cc(Cl)ccc2nc1OC (centres unmarked) [Compound 394] | 2.29 µg/mL (≈ 5.01 µM)
COc1nc2ccc(SC)cc2cc1C(c1ccc(Cl)cc1)C1(O)CCNCC1(C)C (centres unmarked) [Compound 396] | 5.75 µg/mL (≈ 12.6 µM)
COc1nc2ccccc2cc1C(c1ccccc1)C1(O)CCNC(Cc2ccccc2)C1 (centres unmarked) [Compound 399] | > 12.5 µg/mL
COc1ccc2nc(OC)c(C(c3ccccc3)C3(O)CCNC(Cc4ccccc4)C3)cc2c1 (centres unmarked) [Compound 408] | > 19.2 µg/mL
COc1nc2ccccc2cc1C(c1ccccc1)C1(O)CCNC(c2ccccc2)C1 (centres unmarked) [Compound 413] | 18.2 µg/mL (≈ 43 µM)
COc1nc2ccc(Br)cc2cc1C(c1cccnc1)C1(O)CCNC(Cc2ccccc2)C1 (centres unmarked) [Compound 427] | > 16.1 µg/mL
COc1nc2ccc(Br)cc2cc1C(n1cccn1)C1(O)CCNC(Cc2ccccc2)C1 (centres unmarked) [Compound 429] | 3.87 µg/mL (≈ 7.63 µM)
O=c1[nH]c2ccc(Cl)cc2cc1C(c1ccc(Cl)cc1)C1(O)CCNCC1F (centres unmarked) [Compound 457] | 5.76 µg/mL (≈ 13.7 µM)
COc1nc2ccc(Cl)cc2cc1C(c1ccc(Cl)cc1)C1(O)CCNC(CNc2cccnc2)C1 (centres unmarked) [Compound 469] | 4.16 µg/mL (≈ 7.95 µM)
COc1nc2ccc(Cl)cc2cc1C(c1ccc(Cl)cc1)C1(O)CCNC(c2cccnc2)C1 (centres unmarked) [Compound 471] | 2.91 µg/mL (≈ 5.89 µM)

System: Staphylococcus aureus (ATCC29213)
Experiment: In-vitro anti-bacterial activity, microtitre plate assay, IC90 determination (non-mycobacterial strains)
Type: cell-based
Details: 90% inhibitory concentration for bacterial growth, 24 hours, resazurin fluorescence
Procedure, shortened: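 Growth inhibition measured fluorometrically with resazurin (530/590 nm) after overnight 37 °C incubation under normal atmosphere. Bacteria added at roughly 100 TCID50 per well in Mueller-Hinton broth to five-fold compound dilution series; IC90 reported in μg/ml.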

Compound | IC90 STA B29213
COc1nc2ccc(Cl)cc2cc1C(c1ccc(Cl)cc1)C1(O)CCNCC1c1ccccc1 (centres unmarked) [Compound 411] | 4.10 µg/mL (≈ 8.31 µM)
COc1nc2ccc(Cl)cc2cc1C(c1ccc(Cl)cc1)C1(O)CCNCC1c1ccccc1 (centres unmarked) [Compound 412] | 4.02 µg/mL (≈ 8.15 µM)
COc1nc2ccccc2cc1C(c1ccccc1)C1(O)CCNC(c2ccccc2)C1 (centres unmarked) [Compound 414] | 18.39 µg/mL (≈ 43.3 µM)
COc1nc2ccccc2cc1C(c1ccccc1)C1(O)CCNC(c2ccccc2)C1 (centres unmarked) [Compound 415] | 15.47 µg/mL (≈ 36.4 µM)
COc1nc2ccccc2cc1C(c1ccccc1)C1(O)CCNC(c2ccc(F)cc2C)C1 (centres unmarked) [Compound 416] | 9.25 µg/mL (≈ 20.3 µM)
COc1nc2ccc(F)cc2cc1C(c1ccc(S(C)(=O)=O)cc1)C1(O)CCNC(c2ccc(F)cc2C)C1 (centres unmarked) [Compound 418] | >17.6721 µg/mL
COc1nc2ccc(Cl)cc2cc1C(c1ccc(Cl)cc1)C1(O)CCNCC1C (centres unmarked) [Compound 421] | 5.43 µg/mL (≈ 12.6 µM)
COc1nc2ccc(Cl)cc2cc1C(c1ccc(Cl)cc1)C1(O)CCNCC1C (centres unmarked) [Compound 422] | 7.67 µg/mL (≈ 17.8 µM)
COc1nc2ccc(Br)cc2cc1C(c1cccnc1)C1(O)CCNC(Cc2ccccc2)C1 (centres unmarked) [Compound 428] | 15.06 µg/mL (≈ 29 µM)
COc1nc2ccc(Cl)cc2cc1C(c1ccc(Cl)cc1)C1(O)CCNC(c2ccc3ccccc3c2)C1 (centres unmarked) [Compound 430] | 3.39 µg/mL (≈ 6.24 µM)
COc1nc2ccc(Cl)cc2cc1C(c1ccc(Cl)cc1)C1(O)CCNC(c2ccc3ccccc3c2)C1 (centres unmarked) [Compound 431] | 8.60 µg/mL (≈ 15.8 µM)
COc1nc2ccc(Cl)cc2cc1C(c1ccc(Cl)cc1)C1(O)CCNC(c2ccc3ccccc3c2)C1 (centres unmarked) [Compound 432] | 7.41 µg/mL (≈ 13.6 µM)
COc1nc2ccc(Cl)cc2cc1C(c1ccc(Cl)cc1)C1(O)CCNC(c2ccc3ccccc3c2)C1 (centres unmarked) [Compound 442] | 11.37 µg/mL (≈ 20.9 µM)
O=c1[nH]c2ccc(Cl)cc2cc1C(c1ccc(Cl)cc1)C1(O)CCNCC1F (centres unmarked) [Compound 458] | 11.50 µg/mL (≈ 27.3 µM)
COc1nc2ccc(Cl)cc2cc1C(c1ccc(Cl)cc1)C1(O)CCNC(Cc2cccnc2)C1 (centres unmarked) [Compound 468] | 3.21 µg/mL (≈ 6.31 µM)
COc1nc2ccc(Cl)cc2cc1C(c1ccc(Cl)cc1)C1(O)CCNC(CNc2cccnc2)C1 (centres unmarked) [Compound 470] | 5.23 µg/mL (≈ 9.99 µM)

Same assay, conditions: Staphylococcus aureus, ATCC29213, 24 h, 90% inhibitory concentration for bacterial growth, resazurin fluorescence, read-out: IC90 STA B29213

Compound | IC90
COc1nc2ccc(SC(C)C)cc2cc1C(c1ccc(Cl)cc1)C1(O)CCNC(Cc2ccccc2)C1 (centres unmarked) [Compound 382] | 3.45 µg/mL (≈ 6.31 µM)
C=CCC1CNCCC1(O)C(c1cccc(Cl)c1)c1cc2cc(Cl)ccc2nc1OC (centres unmarked) [Compound 394] | 2.89 µg/mL (≈ 6.32 µM)
COc1nc2ccc(SC)cc2cc1C(c1ccc(Cl)cc1)C1(O)CCNCC1(C)C (centres unmarked) [Compound 396] | 5.75 µg/mL (≈ 12.6 µM)
COc1nc2ccccc2cc1C(c1ccccc1)C1(O)CCNC(Cc2ccccc2)C1 (centres unmarked) [Compound 399] | > 12.5 µg/mL
COc1ccc2nc(OC)c(C(c3ccccc3)C3(O)CCNC(Cc4ccccc4)C3)cc2c1 (centres unmarked) [Compound 408] | > 19.2 µg/mL
COc1nc2ccccc2cc1C(c1ccccc1)C1(O)CCNC(c2ccccc2)C1 (centres unmarked) [Compound 413] | 18.2 µg/mL (≈ 43 µM)
COc1nc2ccc(Cl)cc2cc1C(c1ccc(Cl)cc1)C1(O)CCNCC1C (centres unmarked) [Compound 420] | 5.43 µg/mL (≈ 12.6 µM)
COc1nc2ccc(Br)cc2cc1C(c1cccnc1)C1(O)CCNC(Cc2ccccc2)C1 (centres unmarked) [Compound 427] | > 16.1 µg/mL
COc1nc2ccc(Br)cc2cc1C(n1cccn1)C1(O)CCNC(Cc2ccccc2)C1 (centres unmarked) [Compound 429] | 7.72 µg/mL (≈ 15.2 µM)
O=c1[nH]c2ccc(Cl)cc2cc1C(c1ccc(Cl)cc1)C1(O)CCNCC1F (centres unmarked) [Compound 457] | 11.5 µg/mL (≈ 27.3 µM)
COc1nc2ccc(Cl)cc2cc1C(c1ccc(Cl)cc1)C1(O)CCNC(CNc2cccnc2)C1 (centres unmarked) [Compound 469] | 8.3 µg/mL (≈ 15.9 µM)
COc1nc2ccc(Cl)cc2cc1C(c1ccc(Cl)cc1)C1(O)CCNC(c2cccnc2)C1 (centres unmarked) [Compound 471] | 4.94 µg/mL (≈ 9.99 µM)
